According to patent US8097443B2, “Nucleotidyltransferases with enhanced nucleotide triphosphate flexibility” (priority 2007, dated 2012):

Legend:
[1] = tested on: UDP-sugar pyrophosphorylase (Usp); settings: Thermus caldophilus Usp, literature; cited from earlier work
RmlA Q83E = target: T1, RmlA Q83E (Salmonella typhimurium, UniProt P26393, Q83E); experiment: Relative activity of RmlA mutant Q83E with alternative NTPs; assay type: biochemical, Salmonella enterica typhimurium LT2; settings: 10 mM Glucose-1-phosphate, 0.1-10 μM enzyme, 5 mM NTP, 10 mM MgCl2, pH 8.0, 37° C.
T1 construct: His6 (pET28a) (N); made in house; host or cells: Escherichia coli BL21 (DE3)
T1 sequence (P26393 whole entry Q83E): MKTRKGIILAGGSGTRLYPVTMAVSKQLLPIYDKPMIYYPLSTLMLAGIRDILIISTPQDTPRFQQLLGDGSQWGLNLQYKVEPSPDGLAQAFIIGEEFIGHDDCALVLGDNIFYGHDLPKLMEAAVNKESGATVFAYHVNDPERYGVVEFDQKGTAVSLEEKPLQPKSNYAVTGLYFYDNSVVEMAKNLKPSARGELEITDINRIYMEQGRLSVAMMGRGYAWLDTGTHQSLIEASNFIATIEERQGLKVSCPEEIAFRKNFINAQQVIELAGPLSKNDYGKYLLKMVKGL
Source text: (§1) RmlA mutagenesis—RmlA mutants were generated with the Quikchange mutagenesis kit (Stratagene, La Jolla, Calif., USA) using the wt RmlA-pET28a parent expression plasmid as the template and the primers indicated in Table 1. Individual progeny plasmids were confirmed by DNA sequencing to carry the desired mutations. Driven by these mutant plasmids, the corresponding RmlA variants were subsequently expressed and purified as described above.
(§2) Enzymatic Reactions—The enzyme assay was accomplished via slight modification of previously reported methods (Jiang et al. (2000) J. Am. Chem. Soc. 122, 6803-6804; Jiang et al. (2001) Angew. Chem., Int. Ed. 40, 1502-1505; Jiang et al. (2003) Chem Bio Chem 4, 443-446; Barton et al. (2002) Proc. Natl. Acad. Sci. U.S.A. 99, 13397-13402). In a typical reaction, sugar-1-phosphate (10 mM final) and enzyme (0.01-50 μM) were mixed with NTP (0.01-40 mM) in the presence of MgCl2 ([NTP]+5 mM) and 10 U/mL inorganic pyrophosphatase (Sigma, St. Louis, Mo., USA) in 100 mM Tris HCl, pH 8.0 (20 μL final volume). Typical reactions were analyzed after 10 min at 37° C. and reaction times were extended for some slow reacting sugar/NTP combinations. Reactions were stopped by the addition of 80 μL prewarmed HPLC buffer and heat inactivation (95° C., 5 min). The amount of enzyme used and the incubation time was adjusted so that the reactions never proceeded to more than 10% turnover for kinetics, or 30% for activity assays.
(§3) Product Characterization—Reactions were analyzed via analytical HPLC (Supelcosil LC18-T; Supelco, Bellefonte, Pa.; 5 μm, 250×3 mm, 40 mM phosphoric acid, pH 6.5 with triethylamine, with a gradient of 0-10% MeOH over 20 min, 0.8 mL/min, A254). Due to earlier elution, a 5 min 0% MeOH isocratic hold was performed prior to starting the gradient for CTP-containing reactions. For nucleotide sugar products with commercially available standards, HPLC peak identity was confirmed by co-elution.

ST0452 = ST0452 (Sulfurisphaera tokodaii, UniProt Q975F9); settings: Sulfolobus tokodaii ST0452, literature; cited from earlier work
Chain of ST0452 (Q975F9 whole entry): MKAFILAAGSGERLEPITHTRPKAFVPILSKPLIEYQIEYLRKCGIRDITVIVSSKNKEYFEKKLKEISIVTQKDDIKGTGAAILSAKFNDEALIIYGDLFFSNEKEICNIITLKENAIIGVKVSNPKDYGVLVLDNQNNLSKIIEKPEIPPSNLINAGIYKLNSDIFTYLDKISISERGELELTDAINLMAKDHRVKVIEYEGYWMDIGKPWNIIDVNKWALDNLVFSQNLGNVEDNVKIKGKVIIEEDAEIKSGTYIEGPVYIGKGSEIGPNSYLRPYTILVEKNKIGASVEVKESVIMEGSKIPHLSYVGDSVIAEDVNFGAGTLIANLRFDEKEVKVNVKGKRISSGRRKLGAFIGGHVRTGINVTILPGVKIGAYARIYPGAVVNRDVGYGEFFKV

RmlA Q83D [2] = target: T2, RmlA Q83D (Salmonella typhimurium, UniProt P26393, Q83D); experiment: Pseudo first order kinetics of RmlA Q83D mutant; assay type: biochemical, Salmonella enterica typhimurium LT2
T2 construct: using BSA as a standard, and a molecular mass of 34.6 kDa; His6 (pET28a) (N); made in house; host or cells: Escherichia coli BL21 (DE3)
T2 sequence (P26393 whole entry Q83D): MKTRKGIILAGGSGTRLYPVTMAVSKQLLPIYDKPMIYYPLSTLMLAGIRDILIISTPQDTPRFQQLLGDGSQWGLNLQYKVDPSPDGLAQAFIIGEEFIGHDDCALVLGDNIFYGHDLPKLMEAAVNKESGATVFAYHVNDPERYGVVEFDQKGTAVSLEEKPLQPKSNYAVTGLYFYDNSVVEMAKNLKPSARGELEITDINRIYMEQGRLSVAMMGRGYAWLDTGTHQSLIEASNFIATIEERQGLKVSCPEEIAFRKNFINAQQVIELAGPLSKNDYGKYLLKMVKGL
Source text: (§4) Driven by these mutant plasmids, the corresponding RmlA variants were subsequently expressed and purified as described above.
as §2
as §3, with “reactions.” for “reactions. For nucleotide sugar products with commercially available standards, HPLC peak identity was confirmed by co-elution.”
(§5) Kinetic Measurements—Pseudo first order kinetics were obtained by fixing glucose-1-phosphate at a saturating concentration of 10 mM (Barton et al. (2001) Nat Struct Biol 8, 545-551), and titrating NTPs. At least eight different concentrations in the range of ¼×KM to 4×KM (0.09-20 mM for dTTP, 0.2-40 mM for others) were assayed in triplicate. […] Activities were corrected for time and enzyme concentrations, and the kinetic curves were fit to the Michaelis-Menton equation using SigmaPlot with the Enzyme Kinetics module (SPSS, Chicago, Ill., USA).

RmlA Q83N = target: T3, RmlA Q83N (Salmonella typhimurium, UniProt P26393, Q83N); experiment: Relative activity of RmlA mutant Q83N with alternative NTPs; assay type: biochemical, Salmonella enterica typhimurium LT2; settings: 10 mM Glucose-1-phosphate, 0.1-10 μM enzyme, 5 mM NTP, 10 mM MgCl2, pH 8.0, 37° C.
T3 construct: His6 (pET28a) (N); made in house; host or cells: Escherichia coli BL21 (DE3)
T3 sequence (P26393 whole entry Q83N): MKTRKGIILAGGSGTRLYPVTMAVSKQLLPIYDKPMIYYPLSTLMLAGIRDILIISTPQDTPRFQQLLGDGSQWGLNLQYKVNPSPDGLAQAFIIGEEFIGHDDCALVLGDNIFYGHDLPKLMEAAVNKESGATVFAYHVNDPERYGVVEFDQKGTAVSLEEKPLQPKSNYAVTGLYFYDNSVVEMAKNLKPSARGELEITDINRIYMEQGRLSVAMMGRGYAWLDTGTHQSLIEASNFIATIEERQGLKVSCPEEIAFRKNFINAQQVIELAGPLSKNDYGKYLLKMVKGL
Source text: as §1, §2, §3

RmlA Q83D [3] = target: T2, RmlA Q83D; experiment: Relative activity of RmlA mutant Q83D with alternative NTPs; assay type: biochemical, Salmonella enterica typhimurium LT2; settings: 10 mM Glucose-1-phosphate, 0.1-10 μM enzyme, 5 mM NTP, 10 mM MgCl2, pH 8.0, 37° C.
Source text: as §1, §2, §3

RmlA Q83A = target: T4, RmlA Q83A (Salmonella typhimurium, UniProt P26393, Q83A); experiment: Relative activity of RmlA mutant Q83A with alternative NTPs; assay type: biochemical, Salmonella enterica typhimurium LT2; settings: 10 mM Glucose-1-phosphate, 0.1-10 μM enzyme, 5 mM NTP, 10 mM MgCl2, pH 8.0, 37° C.
T4 construct: His6 (pET28a) (N); made in house; host or cells: Escherichia coli BL21 (DE3)
T4 sequence (P26393 whole entry Q83A): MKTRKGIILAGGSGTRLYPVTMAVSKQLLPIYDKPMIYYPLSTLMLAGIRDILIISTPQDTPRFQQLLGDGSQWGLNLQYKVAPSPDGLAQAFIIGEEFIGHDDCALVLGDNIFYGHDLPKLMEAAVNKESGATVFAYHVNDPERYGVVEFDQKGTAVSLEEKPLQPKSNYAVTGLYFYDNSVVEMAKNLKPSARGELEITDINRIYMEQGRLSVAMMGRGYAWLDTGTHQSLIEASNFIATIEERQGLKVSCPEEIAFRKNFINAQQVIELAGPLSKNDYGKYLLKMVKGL
Source text: as §1, §2, §3

[4] = target: wt RmlA (glucose-1-phosphate thymidylyltransferase) (Salmonella typhimurium, UniProt P26393); settings: Wild-type RmlA, 10 mM glucose-1-phosphate, 0.05-25 μM enzyme, [NTP] + 5 mM MgCl2, 100 mM Tris-HCl pH 8.0, 37° C.
Chain of wt RmlA (glucose-1-phosphate thymidylyltransferase) (P26393 whole entry): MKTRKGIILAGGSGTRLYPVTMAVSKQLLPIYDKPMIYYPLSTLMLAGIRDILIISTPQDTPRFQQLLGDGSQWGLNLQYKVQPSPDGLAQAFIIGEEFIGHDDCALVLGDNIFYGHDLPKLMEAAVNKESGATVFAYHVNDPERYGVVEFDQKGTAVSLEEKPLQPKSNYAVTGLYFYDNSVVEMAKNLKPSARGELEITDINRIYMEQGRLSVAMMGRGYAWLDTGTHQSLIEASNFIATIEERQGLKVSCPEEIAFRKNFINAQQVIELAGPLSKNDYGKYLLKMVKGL
Procedure: as §2
as §3, with “reactions.” for “reactions. For nucleotide sugar products with commercially available standards, HPLC peak identity was confirmed by co-elution.”
as §5

RmlA Q83S [5] = target: T5, RmlA Q83S (Salmonella typhimurium, UniProt P26393, Q83S); experiment: Pseudo first order kinetics of RmlA Q83S mutant; assay type: biochemical, Salmonella enterica typhimurium LT2; settings: 10 mM glucose-1-phosphate, 0.05-25 μM enzyme, [NTP] + 5 mM MgCl2, 100 mM Tris-HCl pH 8.0, 37° C.
T5 construct: His6 (pET28a) (N); made in house; host or cells: Escherichia coli BL21 (DE3)
T5 sequence (P26393 whole entry Q83S): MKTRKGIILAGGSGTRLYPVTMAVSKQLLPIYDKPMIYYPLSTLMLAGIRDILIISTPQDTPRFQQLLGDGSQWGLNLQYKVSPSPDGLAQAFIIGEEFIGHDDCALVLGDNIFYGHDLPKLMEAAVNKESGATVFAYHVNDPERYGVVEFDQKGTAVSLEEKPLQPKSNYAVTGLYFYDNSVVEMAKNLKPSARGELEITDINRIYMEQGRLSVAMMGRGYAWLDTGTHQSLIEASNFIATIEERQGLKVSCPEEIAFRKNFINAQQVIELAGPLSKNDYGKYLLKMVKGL
Source text: as §4, §2
as §3, with “reactions.” for “reactions. For nucleotide sugar products with commercially available standards, HPLC peak identity was confirmed by co-elution.”
as §5

RmlA Q83S [6] = target: T5, RmlA Q83S; experiment: Relative activity of RmlA mutant Q83S with alternative NTPs; assay type: biochemical, Salmonella enterica typhimurium LT2; settings: 10 mM Glucose-1-phosphate, 0.1-10 μM enzyme, 5 mM NTP, 10 mM MgCl2, pH 8.0, 37° C.
Source text: as §1, §2, §3

[7] = tested on: Nc1ccn([C@H]2C[C@H](O)[C@@H](COP(=O)(O)OP(=O)(O)OP(=O)(O)O)O2)c(=O)n1; experiment: purified protein, by the assay type; settings: other: Wild-type RmlA, 10 mM glucose-1-phosphate, 0.05-25 μM enzyme, [NTP] + 5 mM MgCl2, 100 mM Tris-HCl pH 8.0, 37° C.
Procedure: (§6) Kinetic Measurements—Pseudo first order kinetics were obtained by fixing glucose-1-phosphate at a saturating concentration of 10 mM (Barton et al. (2001) Nat Struct Biol 8, 545-551), and titrating NTPs. At least eight different concentrations in the range of ¼×KM to 4×KM (0.09-20 mM for dTTP, 0.2-40 mM for others) were assayed in triplicate. Reaction rates were confirmed to be linear over twice the incubation time. Activities were corrected for time and enzyme concentrations, and the kinetic curves were fit to the Michaelis-Menton equation using SigmaPlot with the Enzyme Kinetics module (SPSS, Chicago, Ill., USA).

[8] = tested on: Nc1nc2c(ncn2[C@@H]2O[C@H](COP(=O)(O)OP(=O)(O)OP(=O)(O)O)[C@@H](O)[C@H]2O)c(=O)[nH]1; experiment: purified protein, by the assay type; settings: other: Wild-type RmlA, 10 mM glucose-1-phosphate, 0.05-25 μM enzyme, [NTP] + 5 mM MgCl2, 100 mM Tris-HCl pH 8.0, 37° C.
Procedure: as §6

[9] = tested on: Nc1ncnc2c1ncn2[C@H]1C[C@H](O)[C@@H](COP(=O)(O)OP(=O)(O)OP(=O)(O)O)O1; experiment: purified protein, by the assay type; settings: other: Wild-type RmlA, 10 mM glucose-1-phosphate, 0.05-25 μM enzyme, [NTP] + 5 mM MgCl2, 100 mM Tris-HCl pH 8.0, 37° C.
Procedure: as §6

[10] = tested on: Nc1ccn([C@@H]2O[C@H](COP(=O)(O)OP(=O)(O)OP(=O)(O)O)[C@@H](O)[C@H]2O)c(=O)n1; experiment: purified protein, by the assay type; settings: other: Wild-type RmlA, 10 mM glucose-1-phosphate, 0.05-25 μM enzyme, [NTP] + 5 mM MgCl2, 100 mM Tris-HCl pH 8.0, 37° C.
Procedure: as §6

[11] = tested on: O=c1ccn([C@@H]2O[C@H](COP(=O)(O)OP(=O)(O)OP(=O)(O)O)[C@@H](O)[C@H]2O)c(=O)[nH]1; experiment: purified protein, by the assay type; settings: other: Wild-type RmlA, 10 mM glucose-1-phosphate, 0.05-25 μM enzyme, [NTP] + 5 mM MgCl2, 100 mM Tris-HCl pH 8.0, 37° C.
Procedure: as §6

[12] = tested on: Nc1nc2c(ncn2[C@H]2C[C@H](O)[C@@H](COP(=O)(O)OP(=O)(O)OP(=O)(O)O)O2)c(=O)[nH]1; experiment: purified protein, by the assay type; settings: other: Wild-type RmlA, 10 mM glucose-1-phosphate, 0.05-25 μM enzyme, [NTP] + 5 mM MgCl2, 100 mM Tris-HCl pH 8.0, 37° C.
Procedure: as §6

In the case of Cc1cn([C@H]2C[C@H](O)[C@@H](COP(=O)(O)OP(=O)(O)OP(=O)(O)O)O2)c(=O)[nH]c1=O [dTTP, 2′deoxythymidine-5′-triphosphate], the “turnover of glucose-1-phosphate with NTP by Usp” value [1] is given as “turn over”, the “Relative activity of Q83E as compared to wt RmlA” value (RmlA Q83E) is given as 1.0 and the “utilization of NTP by ST0452” value (ST0452) is given as “good activity”. The “increase in KM, Q83D versus wild-type” value (RmlA Q83D [2]) was 21 fold, the “kcat^app” value (RmlA Q83D [2]; 10 mM glucose-1-phosphate, 0.05-25 μM enzyme, [NTP] + 5 mM MgCl2, 100 mM Tris-HCl pH 8.0, 37° C.) was 3.62 ± 0.233 s⁻¹ and the Km (RmlA Q83D [2]; 10 mM glucose-1-phosphate, 0.05-25 μM enzyme, [NTP] + 5 mM MgCl2, 100 mM Tris-HCl pH 8.0, 37° C., read-out: KM^app) was 6.2 ± 1.2 mM. For the same compound, the “Relative activity of Q83N as compared to wt RmlA” value (RmlA Q83N) was 0.3, the “Relative activity of Q83D as compared to wt RmlA” value (RmlA Q83D [3]) was 0.2 and the “Relative activity of Q83A as compared to wt RmlA” value (RmlA Q83A) was 0.2. For the same compound, the “kcat^app” value [4] was 30.83 ± 0.667 s⁻¹, the Km ([4]; read-out: KM^app) was 0.29 ± 0.04 mM and the “kcat^app” value (RmlA Q83S [5]) was 6.33 ± 0.5 s⁻¹. The Km (RmlA Q83S [5]; read-out: KM^app) was 2.4 ± 0.6 mM and the “Relative activity of Q83S as compared to wt RmlA” value (RmlA Q83S [6]) was 0.3.

In the case of “wt RmlA (glucose-1-phosphate thymidylyltransferase) (Salmonella enterica subsp. enterica serovar Typhimurium str. LT2)”, the Km [7] is reported as 10.5 ± 1.1 mM, the kcat [7] is reported as 1.22 ± 0.05 s⁻¹ and the Km [8] is reported as 8.5 ± 0.6 mM. The kcat [8] was 0.14 ± 0.0033 s⁻¹, the Km [9] was 7.8 ± 0.9 mM and the kcat [9] was 1.88 ± 0.083 s⁻¹. The Km [10] was 13.7 ± 1.1 mM, the kcat [10] was 0.0983 ± 0.0033 s⁻¹ and the Km [11] was 4.6 ± 0.7 mM. It also gave a kcat [11] of 41 ± 2.17 s⁻¹, a Km [12] of 3.7 ± 0.5 mM and a kcat [12] of 2.12 ± 0.083 s⁻¹.
